# Data reported in the supplement of paper PMC10307832.
# Columns and labels:
# Assay in all cases: relative viability (nuclei count vs DMSO), 5 days (fraction); higher = more cells survive
# [1] = compound: CC[C@@H](C)CNCC(=O)N1CCC2=C([C@@H]1COC3=CC=CC(=C3)C)C=CS2 [RU-SKI 43] + COc1cc2c(Oc3ccc(NC(=O)C4(C(=O)Nc5ccc(F)cc5)CC4)cc3F)ccnc2cc1OCCCN1CCOCC1 [Foretinib] (partner 0.25 µM)
# Procedure, shortened: (§1)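 Dosing by pin tool came one day after lung cancer cell lines were seeded in 1536-well plates, using either one drug or a fixed anchor-drug dose plus five library-drug doses (not always all listed) in √10 steps. After 5 days, nuclei were counted on 4× images. Relative viability is treated-well nuclei count divided by vehicle-well nuclei count, and values are medians of duplicate plates.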
# [2] = compound: CCc1c2c(nc3ccc(OC(=O)N4CCC(N5CCCCC5)CC4)cc13)-c1cc3c(c(=O)n1C2)COC(=O)[C@]3(O)CC [Irinotecan] + CCNC(=O)c1noc(-c2cc(C(C)C)c(O)cc2O)c1-c1ccc(CN2CCOCC2)cc1 [Luminespib] (partner 0.01 µM)
# Procedure, shortened: as §1
# [3] = compound: CCc1c2c(nc3ccc(OC(=O)N4CCC(N5CCCCC5)CC4)cc13)-c1cc3c(c(=O)n1C2)COC(=O)[C@]3(O)CC [Irinotecan] + COc1cc2c(Oc3ccc(NC(=O)C4(C(=O)Nc5ccc(F)cc5)CC4)cc3F)ccnc2cc1OCCCN1CCOCC1 [Foretinib] (partner 0.25 µM)
# Procedure, shortened: as §1
# [4] = compound: Cn1cc(-c2cnc3ccc4ccc(CS(=O)(=O)NCc5ccccn5)cc4c(=O)c3c2)cn1 [MK-8033] + NC(=O)Nc1cc(-c2cccc(F)c2)sc1C(=O)N[C@H]1CCCNC1 [AZD7762] (partner 0.2 µM)
# Procedure, shortened: as §1
Cell Line,relative viability ([1]; first compound 0.1 µM),relative viability ([1]; first compound 0.3162 µM),relative viability ([1]; first compound 1 µM),relative viability ([1]; first compound 3.162 µM),relative viability ([1]; first compound 10 µM),relative viability ([2]; first compound 0.6325 µM),relative viability ([2]; first compound 2 µM),relative viability ([2]; first compound 6.325 µM),relative viability ([2]; first compound 20 µM),relative viability ([3]; first compound 0.6325 µM),relative viability ([3]; first compound 2 µM),relative viability ([3]; first compound 6.325 µM),relative viability ([3]; first compound 20 µM),relative viability ([4]; first compound 0.02 µM),relative viability ([4]; first compound 0.06325 µM),relative viability ([4]; first compound 0.2 µM),relative viability ([4]; first compound 0.6325 µM),relative viability ([4]; first compound 2 µM)
EMC-BAC-2,1.01,0.998,1.04,1.01,0.986,0.681,0.407,0.347,0.375,0.691,0.379,0.274,0.44,1.12,0.979,1,1.01,1.09
SW 900,0.807,0.873,1.22,0.864,0.77,0.203,0.387,0.366,0.465,0.898,0.667,0.393,0.448,0.575,0.487,0.564,0.621,0.498
NCI-H1623,0.802,0.871,0.922,0.826,0.711,0.412,0.312,0.279,0.239,0.621,0.64,0.299,0.279,–,–,–,–,–
NCI-H520,0.816,0.892,0.812,0.859,0.539,0.249,0.257,0.256,0.303,0.623,0.679,0.352,0.283,–,–,–,–,–
IA-LM,1.25,1.28,1.49,1.18,1.13,–,–,–,–,0.951,0.62,0.148,0.117,–,–,–,–,–
NCI-H2228,0.769,0.988,0.879,0.863,0.726,0.14,0.177,0.318,0.276,0.925,0.731,0.293,0.238,–,–,–,–,–
NCI-H1648,–,–,–,–,–,–,–,–,–,–,–,–,–,0.6,–,0.533,0.702,0.769
NCI-H1299,1.08,1.1,1.14,1.12,1.09,–,–,–,–,0.888,0.909,0.483,0.212,–,–,–,–,–
COR-L23,0.914,1.19,1.24,1.04,0.842,0.235,0.36,0.223,0.165,0.525,0.446,0.183,0.192,–,–,–,–,–
COR-L 105,0.995,0.903,1.18,1.04,0.736,0.578,0.677,0.421,0.411,1.11,0.8,0.682,0.524,–,–,–,–,–
